Source: patent US20240424010A1, “NICOTINAMIDE RIBOSIDE TRIOLEATES CHLORIDE, COMPOSITIONS CONTAINING THIS COMPOUND, AND METHODS OF MAKING AND USING THIS COMPOUND” (SOCIETE DES PRODUITS NESTLE S.A., priority 2021, published 2024)
“Also recorded” adds a separate entry of the source.

Tests used:
[1] = Particle size, zeta-potential (dynamic light scattering) and TEM of NRTOCl dispersion and emulsions; format: physicochemical
Procedure: The particle size distribution, mean particle diameter (Zeta average size) and zeta-potential of NRTOCl in DI water were measured by using a commercial dynamic light-scattering device (Nano-ZS, Malvern Instruments, Worcestershire, UK). Tecnai F20 TEM/STEM transmission electron microscope (200 kV) was used for characterizing the structure and morphology of prepared NRTOCl nanoparticles. Although NRTOCl is a quaternary ammonium salt, it was not dissolved in water due to the existence of three groups of oleate fatty ester in its structure. Therefore, for the stability study of NRTOCl, this compound was dispersed in DI water using 1% ethanol as a cosolvent. For this purpose, 15 mg of NRTOCl was dissolved in 0.15 ml of ethanol (1%) and then 14.85 ml of DI water was added to the mixture and gently shaken. […] Although the average size of NRTOCl in this sample was 192 nm, the images of TEM disclosed smaller particles with around 50 nm and oval and spherical shapes with aspect ratio close to unity (FIGS. 10A-10C). In the nanoparticles, the NRTOCl structures are stacked on top of each other layer-by-layer. The highly positive charge of NRTO makes the nanoparticles stable in the aqueous phase. […] The total oil phase in these emulsions were 3.2 wt. %, and the concentration of NRTOCl in total volume of each emulsion (15 mL) was 4.4 mM. In the emulsions that used Na-caseinate as an emulsifier, NaN3 (0.01 wt. %) was added to prevent the growth of bacteria. […] An NRTO in canola oil-in-water emulsion was also prepared, using 2 wt. % Tween 80 as an emulsifier in DI water (Tween emulsion). […] As expected by using Tween 80 as a neutral emulsifier, the positive charge of NRTO droplets was almost intact in the emulsion.

[2] = Solubility of NRTOCl in water and in canola, corn and MCT oil; format: physicochemical
Procedure: 2154 mg of canola oil was added to a 15 mL falcon tube containing 380 mg of NRTOCl. Then, the tube was placed in a water bath and was shaken at around 35° C. until NRTOCl was completely dissolved in canola oil. After dissolving NRTOCl in canola oil, the sample was kept at room temperature for the next studies. […] Although NRTOCl is a quaternary ammonium salt, it was not dissolved in water due to the existence of three groups of oleate fatty ester in its structure. Therefore, for the stability study of NRTOCl, this compound was dispersed in DI water using 1% ethanol as a cosolvent. For this purpose, 15 mg of NRTOCl was dissolved in 0.15 ml of ethanol (1%) and then 14.85 ml of DI water was added to the mixture and gently shaken. […] Although the average size of NRTOCl in this sample was 192 nm, the images of TEM disclosed smaller particles with around 50 nm and oval and spherical shapes with aspect ratio close to unity (FIGS. 10A-10C). In the nanoparticles, the NRTOCl structures are stacked on top of each other layer-by-layer. The highly positive charge of NRTO makes the nanoparticles stable in the aqueous phase.

porcine pancreatin = tested on: porcine pancreatin
Procedure: In vitro digestion of NRTOCl in pure form and dissolved in MCT oil was investigated in the following procedures.
The buffer for simulated intestinal phase was prepared according to the following protocol.^29 Specifically, 60 mg of NRTOCl was dissolved in 0.3 mL ethanol and added to 10 g of a buffer solution containing 400 mg bile bovine. 0.75 mL of a CaCl2 solution (0.3 M) was added to this mixture, and the pH was adjusted around 7 by using HCl (1 M). Then, 400 mg of fresh porcine pancreatin was dispersed in 4 mL of buffer solution and added to the mixture. The sample was placed in an incubator (250 rpm) at 37°° C. for 30 minutes. Subsequently, the sample was taken out of the incubator to adjust the pH to around 7 and returned to the incubator for another 30 minutes. The incubation steps and adjusting pH were repeated every 30 minutes until 2 hours were over. For quenching the enzyme, the sample was placed in an ice bath, and then 1.5 mL of the sample was centrifuged at 14,000 rpm for 10 minutes. Finally, the aqueous phase was separated and filtered by a 0.22 μm filter for determination of released NR and nicotinamide.
60 mg of NRTOCl was dissolved in 150 mg of MCT oil to prepare 29% w/w NRTO in MCT oil. Aqueous phase was 10 g of the buffer solution containing 400 mg bile bovine. The oil phase was added to the aqueous phase and homogenized at […] for 150 seconds at room temperature. 0.75 mL of a CaCl2 solution (0.3 M) was added to this mixture, and the pH was adjusted around 7 by using HCl (1 M). Then, 400 mg of fresh porcine pancreatin was dispersed in 5 mL of buffer solution and added to the mixture. The sample was placed in an incubator (250 rpm) at 37° C. for 30 minutes. Then, the sample was taken out of the incubator to adjust the pH to around 7 (by NaOH 1 M) and returned to the incubator for another 30 minutes. The incubating and adjusting pH steps were repeated every 30 minutes until 2 hours were over. For quenching the enzyme, the sample was placed in an ice bath and then 1.5 mL of the sample was centrifuged at 14000 rpm for 10 min. Finally, the aqueous phase was separated and filtered by a 0.22 μm filter for determination of released NR and nicotinamide.
After the NRTOCl stability study in different conditions, the digestibility of this compound to produce NR in simulated intestinal fluid was studied. This enzymatic digestion used porcine pancreatin, bile bovine, and a buffer solution at pH around 7.^29 The lipase enzyme in porcine pancreatin can hydrolyze the fatty ester groups to produce NR, NRDO (nicotinamide riboside dioleates), NRMO (nicotinamide riboside monoleate) and oleic acid as the main products of digestion (FIG. 16). Moreover, nicotinamide (NAM) and ribose-trioleates (RTO) can be formed as the products of hydrolysis of NRTO not digestion. By considering this hypothesis, the NRTO digestion was studied in simulated intestinal phase.
At first, the digestion study was followed by dissolving pure NRTOCl (60 mg) in 0.3 mL of ethanol, and then this solution was added to 10 mL of buffer solution containing 400 mg of bile bovine to disperse NRTO in bile bovine solution. After that, 0.75 mL of CaCl2 solution (0.3M) was added to this mixture, and the pH was adjusted to 7.0 by adding HCl (1 M). […] The released NR and nicotinamide from the sample was measured by LC-MS and HPLC analyses.

[3] = NRTOCl dispersed in DI water with 1% ethanol, 1,000 ppm

SMILES: CCCCCCCC/C=C\CCCCCCCC(=O)OC[C@H]1O[C@@H]([n+]2cccc(C(N)=O)c2)[C@H](OC(=O)CCCCCCC/C=C\CCCCCCCC)[C@@H]1OC(=O)CCCCCCC/C=C\CCCCCCCC.[Cl-] [NRTOCl, nicotinamide riboside trioleates chloride]
- particle size (average size) [1, 3]: 192 nm
- zeta potential [1, 3]: +65 mV
- particle size by TEM ([1]; NRTOCl dispersed in DI water, TEM images): around 50 nm
- appearance of 15 wt. % solution in canola oil during storage ([2]; 15 wt. % NRTOCl in canola oil, room temperature): stable and clear without any sediment
- solubility in canola oil ([2]; canola oil): easily dissolved
- solubility in canola, corn and MCT oil ([2]; room temperature): easily dissolved
- solubility in water ([2]; water): not soluble in water; also recorded: not dissolved; also recorded: water insoluble
- NRTO completely digested (porcine pancreatin): at least 27.5%
- digestibility to release NR (porcine pancreatin): digestible
- nicotinamide detected (N-glycosidic bond hydrolysis) during digestion (porcine pancreatin): 3.9%
- nicotinamide measured (N-glycosidic bond hydrolysis) during digestion (porcine pancreatin): 2.4%
- ribose-trioleates formed during digestion (porcine pancreatin): 2.4%
